Experimental data from publication PMC8962522, “Direct interaction of TrkA/CD44v3 is essential for NGF-promoted aggressiveness of breast cancer cells” (Journal of Experimental & Clinical Cancer Research : CR, 2022).

Columns and labels:
[1] = test system: MDA-MB-231 xenograft tumors; experiment: MDA-MB-231 xenograft tumor growth in SCID mice; format: in vivo; conditions: injected near the tumor five times in a 3-day interval, from mean tumor volume 100 mm^3; versus PBS; 10 mice per group
Experimental: MDA-MB-231 cells (2 × 10^6) were subcutaneously injected into the flanks of six-week-old female SCID mice. One month after injection, the mice were randomized into 2 groups and injected near the tumor with CD44v3 mimetic peptide 4 (P4) or not (control) five times in a 3-day interval. Tumor volume was determined throughout the experiment by measuring the length (l) and width (w) and was calculated as π/6 × l × w × […]. Animals were sacrificed using isoflurane anesthesia when the tumors reached a similar size, and the organs were immediately removed and stored in liquid nitrogen.
To assess the role of TrkA/CD44v3 in vivo, SCID mice were injected with MDA-MB-231 cells to generate xenografts. Primary tumor development and metastasis (to the lung, brain and liver) were analyzed (Fig. 6). […] The development of primary tumors was measured throughout the experiments. […] We also assessed the metastatic burden. […] Micrometastases were detected at the end of the experiment by PCR of human microglobulin in xenograft mice treated with or without the CD44v3 mimetic peptide (Fig. 6E). […]
Fig. 6 CD44v3 mimetic peptide 4 blocks MDA-MB-231 tumor growth and metastasis. […] Body weight (B) and tumor volume (C) were measured following CD44v3 mimetic peptide administration (10 mice per group). […]

[2] = test system: RhoA in MDA-MB-231 cells expressing kinase-dead TrkA; experiment: Ratiometric FRET RhoA activation, kinase-dead TrkA cells; format: cell-based; conditions: for relocation of activated RhoA to the migration front / local RhoA activation, in words: 25 min NGF, relocation observed with scramble peptide
Experimental: MDA-MB-231 native or KD cells were seeded (5000 cells/well; ovn, 37 °C) in a chambered coverglass system (Lab-Tek®) coated with a type I collagen matrix (100 μg/mL; Corning). These cells were transfected using the pBabe-puro-RhoA plasmid (0.15 μg; Addgene plasmid #12602) diluted in a buffer solution (JetOPTIMUS® buffer) and a transfection agent (TA; 10 min). The mixture was incorporated into the culture medium (4 h; 37 °C). Two to three hours before image acquisition, the cells expressing the RhoA biosensor were starved in fresh EMEM containing 0.1% FBS and no phenol red. During image acquisition, the cells were maintained at 37 °C and with 5% CO2 in an incubation chamber installed under a microscope. Images were collected using a ZEISS LSM 880 confocal microscope with a plan-apochromat 63×/1.4 oil differential interference contrast (DIC) objective. The argon laser was tuned to emit 458 nm and 514 nm laser lines through a 470 to 500 nm bandpass emission filter (BP470–500) for CFP detection and a 530 nm longpass emission filter (LP530) for YFP detection. The emission of the CFP, FRET and YFP channels was recorded. The fluorescence emission ratios were computed using ImageJ software, which was also used to generate a report showing the FRET efficiency and intensity signal for each channel.
To further elucidate the mechanism of action of CD44v3 mimetic peptide 4, we studied its effect on the TrkA signaling pathway. […] Additionally, to confirm that this effect was independent of TrkA phosphorylation, we measured RhoA activation in MDA-MB-231 cells expressing dead TrkA kinase, which cannot be phosphorylated (Fig. 5D). […]
Fig. 5 CD44v3 is implicated in the phospho-TrkA-independent activation of RhoA GTPase. Phosphorylation of TrkA was measured in the presence of a scramble peptide or CD44v3 mimetic peptide 4 (P4) in the presence or absence of NGF (A). […] Phosphorylation of TrkA and downstream Akt in wild-type MDA-MB-231 and MDA-MB-231 cells expressing kinase-dead TrkA, as determined by western blotting (D). […]

Sequence: IDDDEDFISST [Peptide 4, mimetic peptide 4 (…) corresponding to the C-terminal region of CD44v3]
- tumor growth (in words) [1]: significantly inhibited the growth of MDA-MB-231 cells in xenograft tumors
- relocation of activated RhoA to the migration front / local RhoA activation, in words ([2]; not with peptide 4, listed as CD44v3 mimetic peptide 4): relocation of activated RhoA to the migration front of the control cells with the scramble peptide after 25 min of NGF treatment but not with CD44v3 mimetic peptide 4
- relocation of activated RhoA to the migration front / local RhoA activation, in words ([2]; not with peptide 4, listed as P4): impedes local RhoA activation independent of TrkA phosphorylation
- NGF-induced increase in proportion of active RhoA, in words ([2]; 45 min NGF, statement: increased with scramble peptide, not with peptide 4): NGF increased the proportion of active RhoA after 45 min in the presence of the scramble peptide (Fig. 5E) but not CD44v3 mimetic peptide 4
